Results from publication PMC5524190 (Biochemistry, 2016).

Biological target: BaIMPDHΔL
Assay type: biochemical, Bacillus anthracis
Settings: read-out: k−7/k7, equilibrium dissociation constant of NAD+ substrate inhibition

Structure (SMILES): NC(=O)c1ccc[n+]([C@@H]2O[C@H](COP(=O)([O-])OP(=O)(O)OC[C@H]3O[C@@H](n4cnc5c(N)ncnc54)[C@H](O)[C@@H]3O)[C@@H](O)[C@H]2O)c1 [NAD^+]
- Kd: 5.5 mM
